According to US20100267561A1, “HERBICIDAL PYRIDAZINONE DERIVATIVES” (priority 2007, published 2010):

Tests used:
Assay in all cases: Test E pre-/postemergence plant response
Assay type in all cases: in vivo
[1] = system: annual bluegrass (Poa annua); details: scale 0 to 100
Text: (§1) Seeds of plant species selected from bermudagrass (Cynodon dactylon), Surinam grass (Brachiaria decumbens), large crabgrass (Digitaria sanguinalis), green foxtail (Setaria viridis), goosegrass (Eleusine indica), johnsongrass (Sorghum halepense), kochia (Kochia scoparia), pitted morningglory (Ipomoea lacunosa), purple nutsedge (Cyperus rotundus), common ragweed (Ambrosia elation), black mustard (Brassica nigra), guineagrass (Panicum maximum), dallisgrass (Paspalum dilatatum), barnyardgrass (Echinochloa crus-galli), southern (S.) sandbur (Cenchrus echinatus), common sowthistle (Sonchus oleraceous), prickly sida (Sida spinosa), Italian ryegrass (Lolium multiflorum), common purslane (Portulaca oleracea), broadleaf signalgrass (Brachiaria platyphylla), common groundsel (Senecio vulgaris), common chickweed (Stellaria media), Virginia (V.) dayflower (Commelina virginica), tropical (T.) spiderwort (Commelina benghalensis), annual bluegrass (Poa annua), naked crabgrass (Digitaria nuda), itchgrass (Rottboellia cochinchinensis), quackgrass (Elytrigia repens), Canada horseweed (Conyza canadensis), field bindweed (Convolvulus arvensis), spanishneedles (Bidens bipinnata), common mallow (Malva sylvestris) and Russian thistle (Salsola kali) were planted and treated preemergence with test chemicals formulated in a non-phytotoxic solvent mixture which included a surfactant. At the same time, plants selected from these weed species were treated with postemergence applications of some of the test chemicals formulated in the same manner. Plants ranged in height from 2 to 18 cm (1- to 4-leaf stage) for postemergence treatments.
(§2) Treated plants and controls were maintained in a greenhouse for 14 to 21 days, after which time all species were compared to controls and visually evaluated. Plant response ratings, summarized in Table E, are based on a scale of 0 to 100 where 0 is no effect and 100 is complete control. A dash (-) response means no test result.

[2] = system: Italian ryegrass (Lolium multiflorum); details: scale 0 to 100
Text: as §1, §2

[3] = system: purple nutsedge (Cyperus rotundus); details: scale 0 to 100
Text: as §1, §2

[4] = system: broadleaf signalgrass (Brachiaria platyphylla); details: scale 0 to 100
Text: as §1, §2

[5] = system: large crabgrass (Digitaria sanguinalis); details: scale 0 to 100
Text: as §1, §2

[6] = system: johnsongrass (Sorghum halepense); details: scale 0 to 100
Text: as §1, §2

[7] = system: goosegrass (Eleusine indica); details: scale 0 to 100
Text: as §1, §2

[8] = system: southern (S.) sandbur (Cenchrus echinatus); details: scale 0 to 100
Text: as §1, §2

[9] = system: barnyardgrass (Echinochloa crus-galli)
Text: as §1, §2

[10] = system: common groundsel (Senecio vulgaris); details: scale 0 to 100
Text: as §1, §2

[11] = system: common purslane (Portulaca oleracea); details: scale 0 to 100
Text: as §1, §2

[12] = system: black mustard (Brassica nigra); details: scale 0 to 100
Text: as §1, §2

[13] = system: dallisgrass (Paspalum dilatatum); details: scale 0 to 100
Text: as §1, §2

[14] = system: bermudagrass (Cynodon dactylon); details: scale 0 to 100
Text: as §1, §2

[15] = system: naked crabgrass (Digitaria nuda); details: scale 0 to 100
Text: as §1, §2

[16] = system: guineagrass (Panicum maximum); details: scale 0 to 100
Text: as §1, §2

[17] = system: pitted morningglory (Ipomoea lacunosa); details: scale 0 to 100
Text: as §1, §2

Compound: CCc1cc(-c2ccc(C(F)(F)F)cc2)nn1-c1c(OC(=O)OC(C)C)cnn(C)c1=O [Compound 12]
- Plant response rating, Bluegrass ([1]; 4 g ai/ha, Postemergence): 0
- Plant response rating, Bluegrass ([1]; 8 g ai/ha, Preemergence): 0
- Plant response rating, Bluegrass ([1]; 31 g ai/ha, Preemergence): 0
- Plant response rating, Bluegrass ([1]; Postemergence, 8 g ai/ha): 0
- Plant response rating, Bluegrass ([1]; Postemergence, 31 g ai/ha): 0
- Plant response rating, Bluegrass ([1]; Preemergence, 4 g ai/ha): 0
- Plant response rating, Ryegrass, Italian ([2]; 4 g ai/ha, Postemergence): 75
- Plant response rating, Ryegrass, Italian ([2]; 31 g ai/ha, Preemergence): 98
- Plant response rating, Ryegrass, Italian ([2]; Postemergence, 8 g ai/ha): 100
- Plant response rating, Ryegrass, Italian ([2]; Postemergence, 31 g ai/ha): 100
- Plant response rating, Ryegrass, Italian ([2]; Preemergence, 4 g ai/ha): 40
- Plant response rating, Nutsedge, Purple ([3]; 4 g ai/ha, Postemergence): 0
- Plant response rating, Nutsedge, Purple ([3]; 31 g ai/ha, Preemergence): 0
- Plant response rating, Nutsedge, Purple ([3]; Postemergence, 8 g ai/ha): 0
- Plant response rating, Nutsedge, Purple ([3]; Postemergence, 31 g ai/ha): 0
- Plant response rating, Signalgrass ([4]; 4 g ai/ha, Postemergence): 65
- Plant response rating, Signalgrass ([4]; 31 g ai/ha, Preemergence): 95
- Plant response rating, Signalgrass ([4]; Postemergence, 8 g ai/ha): 80
- Plant response rating, Signalgrass ([4]; Postemergence, 31 g ai/ha): 100
- Plant response rating, Signalgrass ([4]; Preemergence, 4 g ai/ha): 0
- Plant response rating, Crabgrass, Large ([5]; 4 g ai/ha, Postemergence): 0
- Plant response rating, Crabgrass, Large ([5]; 8 g ai/ha, Preemergence): 35
- Plant response rating, Crabgrass, Large ([5]; 31 g ai/ha, Preemergence): 98
- Plant response rating, Crabgrass, Large ([5]; Postemergence, 8 g ai/ha): 65
- Plant response rating, Crabgrass, Large ([5]; Postemergence, 31 g ai/ha): 95
- Plant response rating, Crabgrass, Large ([5]; Preemergence, 4 g ai/ha): 0
- Plant response rating, Johnsongrass ([6]; 4 g ai/ha, Postemergence): 95
- Plant response rating, Johnsongrass ([6]; 31 g ai/ha, Preemergence): 95
- Plant response rating, Johnsongrass ([6]; Postemergence, 8 g ai/ha): 95
- Plant response rating, Johnsongrass ([6]; Postemergence, 31 g ai/ha): 95
- Plant response rating, Johnsongrass ([6]; Preemergence, 4 g ai/ha): 75
- Plant response rating, Goosegrass ([7]; 4 g ai/ha, Postemergence): 10
- Plant response rating, Goosegrass ([7]; 8 g ai/ha, Preemergence): 65
- Plant response rating, Goosegrass ([7]; 31 g ai/ha, Preemergence): 75
- Plant response rating, Goosegrass ([7]; Postemergence, 8 g ai/ha): 30
- Plant response rating, Goosegrass ([7]; Postemergence, 31 g ai/ha): 90
- Plant response rating, Goosegrass ([7]; Preemergence, 4 g ai/ha): 25
- Plant response rating, Sandbur, S. ([8]; 4 g ai/ha, Postemergence): 90
- Plant response rating, Sandbur, S. ([8]; 31 g ai/ha, Preemergence): 95
- Plant response rating, Sandbur, S. ([8]; Postemergence, 8 g ai/ha): 98
- Plant response rating, Sandbur, S. ([8]; Postemergence, 31 g ai/ha): 100
- Plant response rating, Sandbur, S. ([8]; Preemergence, 4 g ai/ha): 0
- Plant response rating, Barnyardgrass ([9]; 4 g ai/ha, Postemergence, scale 0 to 100): 90
- Plant response rating, Barnyardgrass ([9]; 8 g ai/ha, Preemergence, scale 0 to 100): 70
- Plant response rating, Barnyardgrass ([9]; 31 g ai/ha, Preemergence, scale 0 to 100): 95
- Plant response rating, Barnyardgrass ([9]; Postemergence, 8 g ai/ha, scale 0 to 100): 100
- Plant response rating, Barnyardgrass ([9]; Postemergence, 31 g ai/ha, scale 0 to 100): 100
- Plant response rating, Barnyardgrass ([9]; Preemergence, 4 g ai/ha, scale 0 to 100, 0 no effect, 100 complete control): 20
- Plant response rating, Groundsel ([10]; 4 g ai/ha, Postemergence): 0
- Plant response rating, Groundsel ([10]; 31 g ai/ha, Preemergence): 0
- Plant response rating, Groundsel ([10]; Postemergence, 8 g ai/ha): 0
- Plant response rating, Groundsel ([10]; Postemergence, 31 g ai/ha): 0
- Plant response rating, Groundsel ([10]; Preemergence, 4 g ai/ha): 0
- Plant response rating, Purslane ([11]; 4 g ai/ha, Postemergence): 0
- Plant response rating, Purslane ([11]; 31 g ai/ha, Preemergence): 0
- Plant response rating, Purslane ([11]; Postemergence, 8 g ai/ha): 0
- Plant response rating, Purslane ([11]; Postemergence, 31 g ai/ha): 0
- Plant response rating, Purslane ([11]; Preemergence, 4 g ai/ha): 0
- Plant response rating, Mustard, Black ([12]; 4 g ai/ha, Postemergence): 0
- Plant response rating, Mustard, Black ([12]; 8 g ai/ha, Preemergence): 0
- Plant response rating, Mustard, Black ([12]; 31 g ai/ha, Preemergence): 0
- Plant response rating, Mustard, Black ([12]; Postemergence, 8 g ai/ha): 0
- Plant response rating, Mustard, Black ([12]; Postemergence, 31 g ai/ha): 0
- Plant response rating, Mustard, Black ([12]; Preemergence, 4 g ai/ha): 0
- Plant response rating, Dallisgrass ([13]; 4 g ai/ha, Postemergence): 65
- Plant response rating, Dallisgrass ([13]; 8 g ai/ha, Preemergence): 40
- Plant response rating, Dallisgrass ([13]; 31 g ai/ha, Preemergence): 100
- Plant response rating, Dallisgrass ([13]; Postemergence, 8 g ai/ha): 75
- Plant response rating, Dallisgrass ([13]; Postemergence, 31 g ai/ha): 85
- Plant response rating, Dallisgrass ([13]; Preemergence, 4 g ai/ha): 0
- Plant response rating, Bermudagrass ([14]; 4 g ai/ha, Postemergence): 15
- Plant response rating, Bermudagrass ([14]; 8 g ai/ha, Preemergence): 75
- Plant response rating, Bermudagrass ([14]; 31 g ai/ha, Preemergence): 95
- Plant response rating, Bermudagrass ([14]; Postemergence, 8 g ai/ha): 70
- Plant response rating, Bermudagrass ([14]; Postemergence, 31 g ai/ha): 95
- Plant response rating, Bermudagrass ([14]; Preemergence, 4 g ai/ha): 35
- Plant response rating, Crabgrass, Naked ([15]; 4 g ai/ha, Postemergence): 50
- Plant response rating, Crabgrass, Naked ([15]; 8 g ai/ha, Preemergence): 95
- Plant response rating, Crabgrass, Naked ([15]; 31 g ai/ha, Preemergence): 100
- Plant response rating, Crabgrass, Naked ([15]; Postemergence, 8 g ai/ha): 90
- Plant response rating, Crabgrass, Naked ([15]; Postemergence, 31 g ai/ha): 95
- Plant response rating, Crabgrass, Naked ([15]; Preemergence, 4 g ai/ha): 15
- Plant response rating, Guineagrass ([16]; 4 g ai/ha, Postemergence): 95
- Plant response rating, Guineagrass ([16]; 31 g ai/ha, Preemergence): 100
- Plant response rating, Guineagrass ([16]; Postemergence, 8 g ai/ha): 95
- Plant response rating, Guineagrass ([16]; Postemergence, 31 g ai/ha): 95
- Plant response rating, Guineagrass ([16]; Preemergence, 4 g ai/ha): 0
- Plant response rating, Morningglory ([17]; 4 g ai/ha, Postemergence): 0
- Plant response rating, Morningglory ([17]; 31 g ai/ha, Preemergence): 0
- Plant response rating, Morningglory ([17]; Postemergence, 8 g ai/ha): 0
- Plant response rating, Morningglory ([17]; Postemergence, 31 g ai/ha): 0
- Plant response rating, Morningglory ([17]; Preemergence, 4 g ai/ha): 0
